This is an account of results in patent US6743440B1, “Polycyclic quinone and ionophore composition for the synergistic reduction of methane formation in ruminant animals” (Arkion Life Sciences LLC, priority 1999, dated 2004).

For this assay, the system named is rumen fluid. As to the kind of experiment: in vitro batch culture ruminal fermentation. The settings on record: for Hydrogen / Methane / NH3—N / TVFA (total volatile fatty acids) / Total Gas / VFA C2 (acetate) / VFA C3 (propionate) / VFA C4 (butyrate) / VFA C5 (valerate) / VFA Ci4 (isobutyrate) / VFA Ci5 (isovalerate): high sulfur diet (1.09% S), 24 h, MoO4 25 ppm, M 5 ppm, M + AQ 5 + 10 ppm; for decrease of methane production compared to the control diet: dose effect experiment. Type of assay: cell-based, steer.

[1] abbreviates: AQ 10 ppm, Ionophores 5 ppm, AQ plus Ionophore 10 + 5 ppm.
Where [2] appears, read: intermediate and high levels of 9,10 AQ, P<0.05.

Marks after values point to notes of the source that are not given here.

As to `[O]=[Mo](=[O])([O-])[O-]` [MoO4], under “AQ 10 ppm”, the Hydrogen is recorded as 4.13^ab μMoles/24 h fermentation, the Methane is recorded as 451^a μMoles/24 h fermentation, the “NH3—N” value was 37.9^a mg/dl and the “TVFA (total volatile fatty acids)” value is given as 123.9^b mM. Moreover, for the setting “AQ 10 ppm”, the “Total Gas” value is 94.1^ab mL/24 h fermentation, the “VFA C2 (acetate)” value was 55.2^b moles/100 mol, the “VFA C3 (propionate)” value is listed as 24.2^c moles/100 mol and the “VFA C4 (butyrate)” value is given as 15.1^c moles/100 mol. For the same molecule, under “AQ 10 ppm”, the “VFA C5 (valerate)” value is 2.7^d moles/100 mol, the “VFA Ci4 (isobutyrate)” value is given as 1.2^b moles/100 mol and the “VFA Ci5 (isovalerate)” value was 1.6^b moles/100 mol.

On to `CC[C@@]1([C@H]2O[C@H]([C@H]3O[C@@](O)(CO)[C@H](C)C[C@@H]3C)C[C@H]2C)CC[C@H]([C@@]2(C)CC[C@]3(C[C@H](O)[C@@H](C)[C@@H]([C@H](C)[C@H](OC)[C@@H](C)C(=O)[O-])O3)O2)O1.[Na+]` [M, monensin sodium], for which, under setting [1], the “Methane Concentration” value is recorded as 299 Umole/24 hr. fermentation. Besides, the “Methane concentration, Percent of Control” value (AQ 10 ppm, Ionophores 5 ppm, AQ plus Ionophore 10 + 5 ppm, control = 403) was determined as 74%. For the setting “AQ 10 ppm”, the Hydrogen is 4.17^ab μMoles/24 h fermentation, the Methane is recorded as 299^b μMoles/24 h fermentation, the “NH3—N” value is given as 36.0^a mg/dl and the “TVFA (total volatile fatty acids)” value is 117.5^c mM. Besides, for the setting “AQ 10 ppm”, the “Total Gas” value was 85.2^c mL/24 h fermentation, the “VFA C2 (acetate)” value is recorded as 52.4^c moles/100 mol, the “VFA C3 (propionate)” value is recorded as 28.0^b moles/100 mol and the “VFA C4 (butyrate)” value is listed as 13.6^d moles/100 mol. Where the note is “AQ 10 ppm”, the “VFA C5 (valerate)” value is given as 3.0^c moles/100 mol, the “VFA Ci4 (isobutyrate)” value is given as 1.3^ab moles/100 mol and the “VFA Ci5 (isovalerate)” value was 1.7^b moles/100 mol.

For `O=C1c2ccccc2C(=O)c2ccccc21` [AQ, 9,10-anthraquinone], where the note is “9,10 AQ dose effect experiment”, the “Total VFA relative to the control and untreated high sulfur diet” value is reported as “numerically but not statistically decreased”; the hydrogen concentration entry is listed as “unaffected”. The “decrease of methane production compared to the control diet” value (10 ppm 9,10 AQ) was 21%. For the setting “25 ppm 9,10 AQ”, the “decrease of methane production compared to the control diet” value is 41%. The “Methane Concentration” value under setting [1] was found to be 265 Umole/24 hr. fermentation. In addition, the activity at 10 ppm (AQ 10 ppm, Ionophores 5 ppm, AQ plus Ionophore 10 + 5 ppm, control = 403, read-out: Methane concentration, Percent of Control) worked out at 66%. For the same molecule, for the setting “AQ 10 ppm”, the Hydrogen is on record as 4.27^ab μMoles/24 h fermentation, the Methane is given as 265^b μMoles/24 h fermentation, the “NH3—N” value was 37.2^a mg/dl and the “TVFA (total volatile fatty acids)” value was 118.0^c mM. Where the note is “AQ 10 ppm”, the “Total Gas” value is 89.2^cb mL/24 h fermentation, the “VFA C2 (acetate)” value was 48.4^d moles/100 mol, the “VFA C3 (propionate)” value was 28.1^b moles/100 mol and the “VFA C4 (butyrate)” value is reported as 17.3^a moles/100 mol. Further, where the note is “AQ 10 ppm”, the “VFA C5 (valerate)” value was 3.3^b moles/100 mol, the “VFA Ci4 (isobutyrate)” value is recorded as 1.2^ab moles/100 mol and the “VFA Ci5 (isovalerate)” value is 1.7^b moles/100 mol. The ammonia-N entry (highest level of 9,10 AQ, P<0.05) is listed as “decreased”. The “percentages of C3, C4 and C5” value (intermediate and high levels of 9,10 AQ) is on record as “increased”. Under setting [2], the “molar proportion of C2” value is on record as “decreased” and the total gas produced result is on record as “decreased”. Also, the “effect on fermentation end-products compared to the untreated diets” value (low level of 9,10 AQ (1 ppm)) is “no effect”.
